# According to patent US20080161366A1, “AMINOALKYL SUBSTITUTED ARYL SULFAMIDE DERIVATIVES AND METHODS OF THEIR USE” (Wyeth, priority 2006, published 2008):
# Counter-ions that a name gives are not always drawn.
# Molecular target: human norepinephrine transporter (hNET) (Homo sapiens, UniProt P23975)
# Test: hNET uptake, Protocol B: cell based norepinephrine reuptake assay using recombinant hNET (MDCK-Net6 cells)
# Settings: MDCK-Net6, read-out: NE uptake (Protocol B) % inhibition @ 6 uM
# Chain of human norepinephrine transporter (hNET) (P23975 whole entry): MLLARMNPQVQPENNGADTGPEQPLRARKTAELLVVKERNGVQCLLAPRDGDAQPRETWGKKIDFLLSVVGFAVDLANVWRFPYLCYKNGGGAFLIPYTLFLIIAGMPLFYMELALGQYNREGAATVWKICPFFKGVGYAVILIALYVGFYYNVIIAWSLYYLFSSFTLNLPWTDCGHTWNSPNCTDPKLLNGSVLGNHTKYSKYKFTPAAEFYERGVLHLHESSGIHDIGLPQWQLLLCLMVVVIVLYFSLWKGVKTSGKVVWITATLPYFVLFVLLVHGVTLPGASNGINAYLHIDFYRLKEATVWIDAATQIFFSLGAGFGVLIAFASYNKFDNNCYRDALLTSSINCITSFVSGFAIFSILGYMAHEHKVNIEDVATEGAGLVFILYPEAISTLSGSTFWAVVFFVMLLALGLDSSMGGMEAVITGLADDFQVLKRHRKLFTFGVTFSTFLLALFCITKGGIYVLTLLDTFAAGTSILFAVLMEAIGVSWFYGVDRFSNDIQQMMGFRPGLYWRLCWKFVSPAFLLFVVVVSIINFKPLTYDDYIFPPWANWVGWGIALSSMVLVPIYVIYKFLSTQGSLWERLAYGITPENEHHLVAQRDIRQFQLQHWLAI
row,inhibition at 6 µM [%],Structure (SMILES)
1,0,"O=S1(=O)N(CCCNCC(F)(F)F)c2ccccc2N1c1ccc(F)c(F)c1 [Example 111, 3-[3-(3,4-difluorophenyl)-2,2-dioxido-2,1,3-benzothiadiazol-1(3H)-yl]-N-(2,2,2-trifluoroethyl)propan-1-amine]"

# Same assay, conditions: NE uptake (Protocol B) IC50 (nM), MDCK-Net6 cells, 3H-NE 16 nM
row,IC50 [nM],Structure (SMILES)
1,4.17,"CNCCCN1c2ccccc2N(c2ccc(F)cc2F)S1(=O)=O [Example 75, 3-[3-(2,4-difluorophenyl)-2,2-dioxido-2,1,3-benzothiadiazol-1(3H)-yl]-N-methylpropan-1-amine hydrochloride]"
2,146,"CNCCCN1c2cnccc2N(c2ccccc2)S1(=O)=O [Example 25, 3-(2,2-dioxido-1-phenyl[1,2,5]thiadiazolo[3,4-c]pyridin-3(1H)-yl)-N-methylpropan-1-amine]"
3,113,"O=S1(=O)N(CCCNC2CC2)c2ccccc2N1c1ccccc1 [Example 96, N-[3-(2,2-dioxido-3-phenyl-2,1,3-benzothiadiazol-1(3H)-yl)propyl]cyclopropanamine]"
4,14.1,"NCCCCCN1c2ccccc2N(c2ccccc2F)S1(=O)=O [Example 65, 5-[3-(2-fluorophenyl)-2,2-dioxido-2,1,3-benzothiadiazol-1(3H)-yl]pentan-1-amine]"
5,147,"CNCCCN1c2ccccc2N(c2cccc(OC(F)(F)F)c2)S1(=O)=O [Example 49, 3-{2,2-dioxido-3-[3-(trifluoromethoxy)phenyl]-2,1,3-benzothiadiazol-1(3H)-yl}-N-methylpropan-1-amine hydrochloride]"
6,9,"CNCCCN1c2cccc(F)c2N(c2ccc(F)cc2F)S1(=O)=O [Example 79, 3-[3-(2,4-Difluorophenyl)-4-fluoro-2,2-dioxido-2,1,3-benzothiadiazol-1(3H)-yl]-N-methylpropan-1-amine hydrochloride]"
7,132,"O=S1(=O)N(CCCCNC2CCC2)c2ccccc2N1c1c(F)cccc1F [Example 124, N-{4-[3-(2,6-difluorophenyl)-2,2-dioxido-2,1,3-benzothiadiazol-1(3H)-yl]butyl}cyclobutanamine hydrochloride]"
8,2.78,"CNCCCN1c2ccccc2N(c2cc(F)ccc2F)S1(=O)=O [Example 48, 3-[3-(2,5-difluorophenyl)-2,2-dioxido-2,1,3-benzothiadiazol-1(3H)-yl]-N-methylpropan-1-amine hydrochloride]"
9,222,"O=S1(=O)N(CCCNC2CCC2)c2ccccc2N1c1c(F)cccc1F [Example 128, N-{3-[3-(2,6-difluorophenyl)-2,2-dioxido-2,1,3-benzothiadiazol-1(3H)-yl]propyl}cyclobutanamine hydrochloride]"
10,19,"CNCCCCN1c2ccccc2N(c2c(F)cc(F)cc2F)S1(=O)=O [Example 81, 4-[2,2-Dioxido-3-(2,4,6-trifluorophenyl)-2,1,3-benzothiadiazol-1(3H)-yl]-N-methylbutan-1-amine hydrochloride]"
11,96.2,"CNCCCN1c2ccccc2N(c2cccc(C)c2)S1(=O)=O [Example 15, N-methyl-3-[3-(3-methylphenyl)-2,2-dioxido-2,1,3-benzothiadiazol-1(3H)-yl]propan-1-amine]"
12,370,"CNCCCN1c2ccccc2N(c2ccc(Cl)cc2C)S1(=O)=O [Example 100, 3-[3-(4-chloro-2-methylphenyl)-2,2-dioxido-2,1,3-benzothiadiazol-1(3H)-yl]-N-methylpropan-1-amine]"
13,29.3,"CNCCCN1c2c(F)cccc2N(c2ccccc2)S1(=O)=O [Example 39, 3-(7-fluoro-2,2-dioxido-3-phenyl-2,1,3-benzothiadiazol-1(3H)-yl)-N-methylpropan-1-amine]"
14,23.6,"CNCCCN1c2ccccc2N(c2ccccn2)S1(=O)=O [Example 31, 3-(2,2-dioxido-3-pyridin-2-yl-2,1,3-benzothiadiazol-1(3H)-yl)-N-methylpropan-1-amine hydrochloride]"
15,3270,"NCCCCN1c2ccccc2N(c2ccccc2F)S1(=O)=O [Example 58, 4-[3-(2-fluorophenyl)-2,2-dioxido-2,1,3-benzothiadiazol-1(3H)-yl]butan-1-amine]"
